Source: patent publication US9879303B2, “Chromogenic glucuronidase substrates and uses” (Glycosynth Limited, priority 2013, dated 2018)
Counter-ions that a name gives are not always drawn. Blank lines part the entries; values can stand above or below the molecule they belong to.

Experiments:
[1] = test system: 20 different microbial strains; experiment: specificity of action on 20 different microbial strains, Columbia agar; type: cell-based; conditions: 19 organisms other than E. coli NCTC 10418, FAC
Method: (§1) The specificity of action of both DHN-β-D-glucuronide (2) and of catechol-β-D-glucuronide (1), as well as their 6′-methyl esters (4 and 6), was first established using multi-point inoculation of 20 different microbial strains onto Columbia agar plates. The strains chosen represented species commonly encountered in diagnostic microbiology. The substrates were incorporated into the agar at a concentration of 300 mg/L with an iron salt, ferric ammonium citrate, (hereinafter known as FAC) at 500 mg/L. The plates were incubated for 18 h at 37° C. in air.
Of the 20 strains, only the β-D-glucuronidase-positive strain of E. coli, (E. coli NCTC 10418) was able to hydrolyse the substrates. This organism generated diffuse, purple-brown colonies with the catechol substrates and diffuse, maroon colonies with the DHN substrates. Essentially identical results were obtained if other iron salts (e.g. iron(II) gluconate, iron(II) acetate, iron(II) citrate, iron(II) acetylacetonate and iron(III) acetylacetonate) were substituted in place of FAC. The iron compound can be either iron(II) (i.e. ferrous) or iron(III) (i.e. ferric). Both types of compound work equally, and the coloured chelates were still formed when the plates were incubated under anaerobic conditions, which is another useful feature of the present invention. The substrates may also be autoclaved at 116° C. for 20 minutes with no decrease in sensitivity. It will be appreciated that the media and the reagents will all contain at least traces of iron compounds. […] In contrast, supplementing the growth media with compounds of other metals gave either no coloured endpoint or an extremely poor one to visualise. […] Therefore the latter substrates were preferred for more extensive evaluation. […] For convenience, further evaluation of catechol-β-D-glucuronide and DHN-β-D-glucuronide was conducted with the CHA salt forms only (1 and 2b). In the present invention the counter ion of the glucuronide is not considered to be of special significance. For acidic enzyme substrates (including glucuronides), a variety of different counter ions, both inorganic and organic, are well known in the prior art.

[2] = test system: Burkholderia cepacia NCTC 10931; experiment: multi-point inoculation onto Columbia agar plates; type: cell-based; conditions: substrate 300 mg/L, FAC 500 mg/L, 18 h at 37° C. in air
Method: as §1

[3] = test system: Staphylococcus epidermidis NCTC 11047; experiment: multi-point inoculation onto Columbia agar plates; also: key: ++ means strong colour; + means less colour than ++; − means no colour; type: cell-based; conditions: substrate 300 mg/L, FAC 500 mg/L, 18 h at 37° C. in air
Method: as §1

[4] = test system: Candida albicans ATCC 90028; experiment: multi-point inoculation onto Columbia agar plates; also: key: ++ means strong colour; + means less colour than ++; − means no colour; type: cell-based; conditions: substrate 300 mg/L, FAC 500 mg/L, 18 h at 37° C. in air
Method: as §1

[5] = test system: Providencia rettgeri NCTC 7475; experiment: multi-point inoculation onto Columbia agar plates; also: key: ++ means strong colour; + means less colour than ++; − means no colour; type: cell-based; conditions: substrate 300 mg/L, FAC 500 mg/L, 18 h at 37° C. in air
Method: as §1

[6] = test system: Serratia marcescens NCTC 10211; experiment: multi-point inoculation onto Columbia agar plates; also: key: ++ means strong colour; + means less colour than ++; − means no colour; type: cell-based; conditions: substrate 300 mg/L, FAC 500 mg/L, 18 h at 37° C. in air
Method: as §1

[7] = test system: Staphylococcus aureus NCTC 6571; experiment: multi-point inoculation onto Columbia agar plates; also: key: ++ means strong colour; + means less colour than ++; − means no colour; type: cell-based; conditions: substrate 300 mg/L, FAC 500 mg/L, 18 h at 37° C. in air
Method: as §1

[8] = test system: Listeria monocytogenes NCTC 11994; experiment: multi-point inoculation onto Columbia agar plates; also: key: ++ means strong colour; + means less colour than ++; − means no colour; type: cell-based; conditions: substrate 300 mg/L, FAC 500 mg/L, 18 h at 37° C. in air
Method: as §1

[9] = test system: Acinetobacter baumanaii NCTC 19606; experiment: multi-point inoculation onto Columbia agar plates; also: key: ++ means strong colour; + means less colour than ++; − means no colour; type: cell-based; conditions: substrate 300 mg/L, FAC 500 mg/L, 18 h at 37° C. in air
Method: as §1

[10] = test system: Yersinia enterocolitica NCTC 11176; experiment: multi-point inoculation onto Columbia agar plates; type: cell-based; conditions: substrate 300 mg/L, FAC 500 mg/L, 18 h at 37° C. in air
Method: as §1

[11] = test system: Pseudomonas aeruginosa NCTC 10662; experiment: multi-point inoculation onto Columbia agar plates; also: key: ++ means strong colour; + means less colour than ++; − means no colour; type: cell-based; conditions: substrate 300 mg/L, FAC 500 mg/L, 18 h at 37° C. in air
Method: as §1

[12] = test system: Klebsiella pneumoniae NCTC 9528; experiment: multi-point inoculation onto Columbia agar plates; also: key: ++ means strong colour; + means less colour than ++; − means no colour; type: cell-based; conditions: substrate 300 mg/L, FAC 500 mg/L, 18 h at 37° C. in air
Method: as §1

[13] = test system: Staphylococcus aureus (MRSA) NCTC 11939; experiment: multi-point inoculation onto Columbia agar plates; also: key: ++ means strong colour; + means less colour than ++; − means no colour; type: cell-based; conditions: substrate 300 mg/L, FAC 500 mg/L, 18 h at 37° C. in air
Method: as §1

[14] = test system: Salmonella typhimurium NCTC 74; experiment: multi-point inoculation onto Columbia agar plates; also: key: ++ means strong colour; + means less colour than ++; − means no colour; type: cell-based; conditions: substrate 300 mg/L, FAC 500 mg/L, 18 h at 37° C. in air
Method: as §1

[15] = test system: Bacillus subtilis NCTC 9372; experiment: multi-point inoculation onto Columbia agar plates; also: key: ++ means strong colour; + means less colour than ++; − means no colour; type: cell-based; conditions: substrate 300 mg/L, FAC 500 mg/L, 18 h at 37° C. in air
Method: as §1

[16] = test system: Enterococcus faecalis NCTC 775; experiment: multi-point inoculation onto Columbia agar plates; also: key: ++ means strong colour; + means less colour than ++; − means no colour; type: cell-based; conditions: substrate 300 mg/L, FAC 500 mg/L, 18 h at 37° C. in air
Method: as §1

[17] = test system: Escherichia coli NCTC 10418; experiment: multi-point inoculation onto Columbia agar plates; type: cell-based; conditions: for intensity of the colour / performance compared with the other substrates: comparison in words, Columbia agar with FAC; for colour: substrate 300 mg/L, FAC 500 mg/L, 18 h at 37° C. in air
Method: as §1

[18] = test system: Enterococcus faecium NCTC 7171; experiment: multi-point inoculation onto Columbia agar plates; also: key: ++ means strong colour; + means less colour than ++; − means no colour; type: cell-based; conditions: substrate 300 mg/L, FAC 500 mg/L, 18 h at 37° C. in air
Method: as §1

[19] = test system: Streptococcus pyogenes NCTC 8306; experiment: multi-point inoculation onto Columbia agar plates; also: key: ++ means strong colour; + means less colour than ++; − means no colour; type: cell-based; conditions: substrate 300 mg/L, FAC 500 mg/L, 18 h at 37° C. in air
Method: as §1

[20] = test system: Enterobacter cloacae NCTC 11936; experiment: multi-point inoculation onto Columbia agar plates; also: key: ++ means strong colour; + means less colour than ++; − means no colour; type: cell-based; conditions: substrate 300 mg/L, FAC 500 mg/L, 18 h at 37° C. in air
Method: as §1

[21] = test system: Candida glabrata NCPF 3943; experiment: multi-point inoculation onto Columbia agar plates; also: key: ++ means strong colour; + means less colour than ++; − means no colour; type: cell-based; conditions: substrate 300 mg/L, FAC 500 mg/L, 18 h at 37° C. in air
Method: as §1

melting point: 191 to 192 °C
Compound: COC(=O)C1OC(Oc2cc3ccccc3cc2O)C(OC(C)=O)C(OC(C)=O)C1OC(C)=O [Compound 5, DHN-2′,3′,4′-tri-O-acetyl-β-D-glucuronide-6-methyl ester]

Compound: COC(=O)C1OC(Oc2cc3ccccc3cc2O)C(O)C(O)C1O [Compound 6, DHN-β-D-Glucuronide-6′-Methyl Ester]
result with the other 19 organisms [1]: uniformly negative | colour [2]: − | colour [3]: − | colour [4]: − | colour [5]: − | colour [6]: − | colour [7]: − | colour [8]: − | colour [9]: − | colour [10]: − | colour [11]: − | colour [12]: − | colour [13]: − | colour [14]: − | colour [15]: − | colour [16]: − | intensity of the colour / performance compared with the other substrates [17]: noticeably inferior | colour [17]: + | colour [18]: − | colour [19]: − | colour [20]: − | colour [21]: −

Compound: O=C(O)C1OC(Oc2cc3ccccc3cc2O)C(O)C(O)C1O (as salt: salt) [Compound 2b, DHN-β-D-Glucuronide CHA Salt]
melting point: 223 to 224 °C

Compound: O=C([O-])C1OC(Oc2cc3ccccc3cc2O)C(O)C(O)C1O.[Na+] [Compound 2a, DHN-β-D-Glucuronide Sodium Salt]
melting point: 53 to 55 °C | result with the other 19 organisms [1]: uniformly negative | colour [2]: − | colour [3]: − | colour [4]: − | colour [5]: − | colour [6]: − | colour [7]: − | colour [8]: − | colour [9]: − | colour [10]: − | colour [11]: − | colour [12]: − | colour [13]: − | colour [14]: − | colour [15]: − | colour [16]: − | intensity of the colour / performance compared with the other substrates [17]: performed the same as its CHA salt (2b) | colour [17]: ++ | colour [18]: − | colour [19]: − | colour [20]: − | colour [21]: −

Compound: O=C(O)C1OC(Oc2ccccc2O)C(O)C(O)C1O (as salt: salt) [Compound 1, Catechol β-D-Glucuronide CHA Salt]
melting point: 208 to 210 °C

melting point: 128 to 130 °C
Compound: COC(=O)C1OC(Oc2ccccc2O)C(OC(C)=O)C(OC(C)=O)C1OC(C)=O [Compound 3, Catechol 2′,3′,4′,-tri-O-acetyl β-D-glucuronide-6′-methyl ester]

Compound: COC(=O)C1OC(Oc2ccccc2O)C(O)C(O)C1O [Compound 4, Catechol β-D-Glucuronide-6′-Methyl Ester]
result with the other 19 organisms [1]: uniformly negative | colour [2]: − | colour [3]: − | colour [4]: − | colour [5]: − | colour [6]: − | colour [7]: − | colour [8]: − | colour [9]: − | colour [10]: − | colour [11]: − | colour [12]: − | colour [13]: − | colour [14]: − | colour [15]: − | colour [16]: − | intensity of the colour / performance compared with the other substrates [17]: noticeably inferior | colour [17]: + | colour [18]: − | colour [19]: − | colour [20]: − | colour [21]: −
